Assays:
[1] = test system: polyglutamine luciferase reporter; assay: Screening: polyglutamine luciferase reporter assay in NUGC3 cells (luminescence % of DMSO); format: cell-based, human; conditions: NUGC3 cells, luminescence relative to DMSO, concentration not given
[2] = test system: triple-negative breast cancer cell line MDA-MB-231; assay: Anti-tumor effect evaluation test in MDA-MB-231 tumor model mice; format: in vivo, immunodeficient mice (BALB/c-nu/nu); conditions: 100 mg/kg intraperitoneally every other day in corn oil; FIG. 1 and 2
Description: A cell suspension (1×10^6 cells/100 μL), in which triple-negative breast cancer cell line MDA-MB-231 was suspended in phosphate buffer (PBS, produced by FUJIFILM Wako Pure Chemical Corporation), was inoculated subcutaneously in the dorsal lumbar region of immunodeficient mice (BALB/c-nu/nu, female, 6 weeks old, purchased from Shimizu Laboratory Supplies Co., Ltd.) using a syringe with a 23 G injection needle (Terumo Corporation). After confirming that the cancer cells engrafted under the skin of the mice to form tumor tissues, and that the tumor volume reached 100 mm^3, the obtained tumor model mice were used for the following evaluation test. First, each compound for evaluation was dissolved in corn oil (produced by Sigma-Aldrich Co., LLC) and administered intraperitoneally. PVZF0024 was administered at 100 mg/kg and PVZF2001 was administered at 20 mg/kg to the tumor model mice every other day. At each administration, the tumor diameter was measured with a caliper. The tumor volume was calculated according to the following formula: V=(3.14×D×d^2)/6 (wherein V is the tumor volume, D is the tumor major axis, and d is the tumor minor axis) (Wu. et al., Clin. Cancer Res., 2013 Oct. 15; 19(20): 5699-5710).

YAP/TAZ = assay: Screening: YAP/TAZ activity reporter (8xGTIIC plasmid) assay in NUGC3 cells (luminescence % of DMSO); format: cell-based, human; conditions: NUGC3 cells, luminescence relative to DMSO, concentration not given
[3] = polyglutamine luciferase reporter
[4] = YAP/TAZ activity reporter (8×GTIIC)

Compound	Polyglutamine [1] [%]	antitumor effect (tumor growth, tumor volume) [2]	8×GTIIC (YAP/TAZ) [%]	Polyglutamine [1, 3] [%]	8×GTIIC (YAP/TAZ; [4]) [%]
Oc1ccccc1C1CC(c2ccc3c(c2)OCCO3)=NN1 (stereo not drawn) [PVZF0024]	15.8	significantly inhibit tumor growth	23.4		
Cc1ccc(C2=NC(S(=O)(=O)c3ccc(C)cc3)C(c3ccccc3)C2)cc1 (stereo not drawn) [PVZF0072]	60.73		76.88		
Cc1cc(C)c(S(=O)(=O)CC2CC(C)(C)CC(C)(C)C2)cc1C [SA007]				55.29	56.96
Cc1ccc(S(=O)(=O)CC2CCC(C3CC3)CC2)cc1 (stereo not drawn) [SA067]				75.3	75.49
Cc1ccc(S(=O)(=O)CC2CCC(C3CC3)CC2)c(C)c1 (stereo not drawn) [SA035]				98.96	116.6
CS(=O)(=O)C1CCC(CS(=O)(=O)c2ccc3c(c2)CCCCC3)CC1 (stereo not drawn) [SA061]				66.4	96.27
CCC(C)(C)c1ccc(S(=O)(=O)CC2CCCCC2)cc1 [PVZF2039]				53.6	60
O=S(=O)(CC1CCCCC1)c1ccc2ccccc2c1 [PVZF2012]				33.76	34.08
CCC1CCC(C(C)S(=O)(=O)c2c(C)cc(C(C)(C)C)cc2C)CC1 (stereo not drawn) [SA068]				81.58	110.2
O=S(=O)(CC1CCCCC1)c1ccc(-c2ccccc2)cc1 [PVZF2030]				50.36	49.29
CC(C)(C)c1cccc(S(=O)(=O)C2CCC(CS(=O)(=O)c3ccccc3)CC2)c1 (stereo not drawn) [SA016]				43.01	53.02
CC(=O)C1CC(c2cccc(C)c2)CC1c1ccccc1 (stereo not drawn) [PZ163]				71.16	103.2
CC(C)(C)c1ccccc1S(=O)(=O)CC1CCC(C2CC2)CC1 (stereo not drawn) [SA087]				78.43	59.57
CCC(C)(C)c1ccc(S(=O)(=O)CCc2ccccc2)cc1 [PVZF2041]				78.87	79.61
CCc1ccc(C2=NC(S(=O)(=O)c3ccc(C)cc3)C(c3cccc(CC)c3CC)C2)cc1CC (stereo not drawn) [PVZF0081]	57.42		56.18		
CC1(C)CC(CS(=O)(=O)c2ccc(C3CCCCC3)cc2)CC(C)(C)S1 [PVZF2072]				80.1	83.58
CCc1ccccc1C1CC(c2ccc(C)cc2)=NC1S(=O)(=O)c1ccccc1 (stereo not drawn) [PVZF0063]	43.6		56.3		

Compound	Polyglutamine [1] [%]	antitumor effect (tumor growth, tumor volume) [2]	8×GTIIC (YAP/TAZ) [%]	Polyglutamine [1, 3] [%]	8×GTIIC (YAP/TAZ; [4]) [%]
CC(=O)C1CC(c2ccc(C)cc2)CC1c1ccc2ccccc2c1 (stereo not drawn) [PZ177]				43.89	71.59
Cc1ccc(C2=NC(S(=O)(=O)c3ccccc3C)C(c3cccc(C)c3)C2)cc1 (stereo not drawn) [PVZF0062]	54.91		73.79		
Cc1ccc(C2=NC(S(=O)(=O)c3ccccc3C)C(c3ccc(C)cc3)C2)cc1 (stereo not drawn) [PVZF0064]	58.28		93.3		
O=S(=O)(CC1CCC(C2CC2)CC1)c1ccc2c(c1)CCCC2 (stereo not drawn) [SA031]				62.23	76.14
Cc1cc(C)c(S(=O)(=O)CC2CC(C)(C)SC(C)(C)C2)cc1C [SA023]				63.47	87.74
CCCC(=O)C1CCC(CS(=O)(=O)c2ccc(C)cc2C)CC1 (stereo not drawn) [SA025]				49.45	46.27
CC(C)c1ccc(S(=O)(=O)CC2CCC(C3CC3)CC2)cc1 (stereo not drawn) [SA058]				76.81	35.45
CCCc1cc(C)c(C(C)C)cc1S(=O)(=O)CC1CC(C)(C)CC(C)(C)C1 [SA003]				37.79	46.84
CCc1cccc(C2CC(c3ccc(C)cc3)=NC2S(=O)(=O)c2ccccc2)c1CC (stereo not drawn) [PVZF0056]	48.33		53.76		
CCc1ccc(C2CC(c3ccc(C)cc3)=NC2S(=O)(=O)c2ccccc2)cc1CC (stereo not drawn) [PVZF0066]	56.14		65.56		
CC(C)c1cc(C(C)C)c(S(=O)(=O)CC2CCCC2)c(C(C)C)c1 [PVZF2002]				36.92	38.2
Cc1ccc(C(C)(C)C)cc1S(=O)(=O)C1CCC(NS(=O)(=O)c2ccccc2)CC1 (stereo not drawn) [SA019]				55.62	66.45
CC(C)(C)c1ccc(S(=O)(=O)CC2CCCCC2)cc1 [PVZF2021]				32.95	44.55
Cc1ccc(S(=O)(=O)CC2CCC(C3CC3)CC2)cc1C (stereo not drawn) [SA042]				94.62	100.9
CCc1cccc(C2CC(c3ccc(C)cc3)=NC2S(=O)(=O)c2ccccc2C)c1CC (stereo not drawn) [PVZF0059]	43.94		38.46		
O=S(=O)(CCc1ccccc1)c1ccc2ccccc2c1 [PVZF2014]				40.32	59.08
CCc1cccc(C2CC(c3ccc(C)cc3)=NC2S(=O)(=O)c2ccccc2C)c1CC (stereo not drawn) [PVZF0051]	40.74		36.59		

Reference: patent US20230210834A1, “RNA METHYLTRANSFERASE INHIBITOR, SCREENING METHOD THEREFOR, ANTI-CANCER AGENT EFFICACY ASSESSMENT MARKER, AND KIT FOR EFFECTIVELY PREDICTING FTSJ1 INHIBITOR” (National University Corporation Okayama University, priority 2019, published 2023)
